Reference: patent US20260224584A1 (priority 2023, published 2026)
Counter-ions that a name gives are not always drawn.

Test system: Human WB (90%) CD69
Assay: Human WB (90%) CD69
Assay type: cell-based
Conditions: read-out: Human WB (90%) CD69 IC50 (nM); human whole blood (90%), CD69 readout

SMILES | IC50
CC(C)N1CCN(c2ccc(-c3cc(N4CCN(C(C)C)CC4)c4nc(-c5ccc(S(C)(=O)=O)cc5)n(C)c4c3)cc2)CC1 [Example 1, 4-(4-isopropylpiperazin-1-yl)-6-(4-(4-isopropylpiperazin-1-yl)phenyl)-1-methyl-2-(4-(methylsulfonyl)phenyl)-1H-benzo[d]imidazole] | 77 nM
CC(C)N1CCN(c2ccc(-c3cc(N(C)CCN(C)C)c4nc(-c5ccc(S(C)(=O)=O)cc5)n(C)c4c3)cc2)CC1 [Example 2, N1-(6-(4-(4-isopropylpiperazin-1-yl)phenyl)-1-methyl-2-(4-(methylsulfonyl)phenyl)-1H-benzo[d]imidazol-4-yl)-N^1,N^2,N^2-trimethylethane-1,2-diamine] | 199 nM
CC(C)N1CCN(c2ccc(-c3cc(NCCN4CCCC4)c4nc(-c5ccc(S(C)(=O)=O)cc5)n(C)c4c3)cc2)CC1 [Example 3, 6-(4-(4-isopropylpiperazin-1-yl)phenyl)-1-methyl-2-(4-(methylsulfonyl)phenyl)-N-(2-(pyrrolidin-1-yl)ethyl)-1H-benzo[d]imidazol-4-amine] | 87 nM
Cc1nc2c(NCCN3CCOCC3)cc(-c3ccc(N4CCN(C(C)C)CC4)cc3)cc2n1C [Example 4, 6-(4-(4-isopropylpiperazin-1-yl)phenyl)-1,2-dimethyl-N-(2-morpholinoethyl)-1H-benzo[d]imidazol-4-amine] | 106 nM
COc1ccc(-c2nc3c(NCCN4CCOCC4)cc(-c4ccc(N5CCN(C(C)C)CC5)cc4)cc3n2C)cc1OC [Example 5, 2-(3,4-dimethoxyphenyl)-6-(4-(4-isopropylpiperazin-1-yl)phenyl)-1-methyl-N-(2-morpholinoethyl)-1H-benzo[d]imidazol-4-amine] | 94 nM
Cc1cc(C)nc(Nc2cc(-c3ccc(N4CCN(C(C)C)CC4)cc3)cc3c2nc(C)n3C)c1 [Example 6, N-(4,6-dimethylpyridin-2-yl)-6-(4-(4-isopropylpiperazin-1-yl)phenyl)-1,2-dimethyl-1H-benzo[d]imidazol-4-amine] | 25 nM
Cc1nc2c(NCCN3CCC(F)(F)CC3)cc(-c3ccc(N4CCN(C(C)C)CC4)cc3)cc2n1C [Example 7, N-(2-(4,4-difluoropiperidin-1-yl)ethyl)-6-(4-(4-isopropylpiperazin-1-yl)phenyl)-1,2-dimethyl-1H-benzo[d]imidazol-4-amine] | 923 nM
COc1cccc(CCNc2cc(-c3ccc(N4CCN(C(C)C)CC4)cc3)cc3c2nc(C)n3C)c1OC [Example 8, N-(2,3-dimethoxyphenethyl)-6-(4-(4-isopropylpiperazin-1-yl)phenyl)-1,2-dimethyl-1H-benzo[d]imidazol-4-amine, TFA] | 1560 nM
Cc1nc2c(NC3CCS(=O)(=O)CC3)cc(-c3ccc(N4CCN(C(C)C)CC4)cc3)cc2n1C [Example 9, 4-((6-(4-(4-isopropylpiperazin-1-yl)phenyl)-1,2-dimethyl-1H-benzo[d]imidazol-4-yl)amino)tetrahydro-2H-thiopyran 1,1-dioxide] | 1120 nM
Cc1nc2c(NCCc3ccc(S(C)(=O)=O)cc3)cc(-c3ccc(N4CCN(C(C)C)CC4)cc3)cc2n1C [Example 10, 6-(4-(4-isopropylpiperazin-1-yl)phenyl)-1,2-dimethyl-N-(4-(methylsulfonyl)phenethyl)-1H-benzo[d]imidazol-4-amine] | 813 nM
Cc1nc2c(NCc3ccc(S(C)(=O)=O)cc3)cc(-c3ccc(N4CCN(C(C)C)CC4)cc3)cc2n1C [Example 11, 6-(4-(4-isopropylpiperazin-1-yl)phenyl)-1,2-dimethyl-N-(4-(methylsulfonyl)benzyl)-1H-benzo[d]imidazol-4-amine] | 918 nM
Cc1nc2c(NCc3cccc(S(C)(=O)=O)c3)cc(-c3ccc(N4CCN(C(C)C)CC4)cc3)cc2n1C [Example 12, 6-(4-(4-isopropylpiperazin-1-yl)phenyl)-1,2-dimethyl-N-(3-(methylsulfonyl)benzyl)-1H-benzo[d]imidazol-4-amine] | 971 nM
Cc1nc2c(NC3CCN(S(C)(=O)=O)CC3)cc(-c3ccc(N4CCN(C(C)C)CC4)cc3)cc2n1C [Example 13, 6-(4-(4-isopropylpiperazin-1-yl)phenyl)-1,2-dimethyl-N-(1-(methylsulfonyl)piperidin-4-yl)-1H-benzo[d]imidazol-4-amine] | 1220 nM
Cc1nc2c(NCc3ccc(CN4CCOCC4)cc3)cc(-c3ccc(N4CCN(C(C)C)CC4)cc3)cc2n1C [Example 14, 6-(4-(4-isopropylpiperazin-1-yl)phenyl)-1,2-dimethyl-N-(4-(morpholinomethyl)benzyl)-1H-benzo[d]imidazol-4-amine] | 31 nM
Cc1ccc(Nc2cc(-c3ccc(N4CCN(C(C)C)CC4)cc3)cc3c2nc(C)n3C)cn1 [Example 15, 6-(4-(4-isopropylpiperazin-1-yl)phenyl)-1,2-dimethyl-N-(6-methylpyridin-3-yl)-1H-benzo[d]imidazol-4-amine] | 526 nM
Cc1nc2c(Nc3ccc(N4CCOCC4)cn3)cc(-c3ccc(N4CCN(C(C)C)CC4)cc3)cc2n1C [Example 16, 6-(4-(4-isopropylpiperazin-1-yl)phenyl)-1,2-dimethyl-N-(5-morpholinopyridin-2-yl)-1H-benzo[d]imidazol-4-amine] | 207 nM

SMILES | IC50
Cc1nc2c(Nc3ccc(N4CCOCC4)nn3)cc(-c3ccc(N4CCN(C(C)C)CC4)cc3)cc2n1C [Example 17, 6-(4-(4-isopropylpiperazin-1-yl)phenyl)-1,2-dimethyl-N-(6-morpholinopyridazin-3-yl)-1H-benzo[d]imidazol-4-amine, TFA] | 137 nM
Cc1nc2c(Nc3ccc(N4CCOCC4)nc3)cc(-c3ccc(N4CCN(C(C)C)CC4)cc3)cc2n1C [Example 18, 6-(4-(4-isopropylpiperazin-1-yl)phenyl)-1,2-dimethyl-N-(6-morpholinopyridin-3-yl)-1H-benzo[d]imidazol-4-amine] | 728 nM
Cc1cc(Nc2cc(-c3ccc(N4CCN(C(C)C)CC4)cc3)cc3c2nc(C)n3C)cnc1C [Example 19, N-(5,6-dimethylpyridin-3-yl)-6-(4-(4-isopropylpiperazin-1-yl)phenyl)-1,2-dimethyl-1H-benzo[d]imidazol-4-amine] | 452 nM
Cc1nc2c(Nc3cnccn3)cc(-c3ccc(N4CCN(C(C)C)CC4)cc3)cc2n1C [Example 20, 6-(4-(4-isopropylpiperazin-1-yl)phenyl)-1,2-dimethyl-N-(pyrazin-2-yl)-1H-benzo[d]imidazol-4-amine] | 1270 nM
Cc1nc2c(Nc3ncccn3)cc(-c3ccc(N4CCN(C(C)C)CC4)cc3)cc2n1C [Example 21, 6-(4-(4-isopropylpiperazin-1-yl)phenyl)-1,2-dimethyl-N-(pyrimidin-2-yl)-1H-benzo[d]imidazol-4-amine] | 1640 nM
Cc1ccc(Nc2cc(-c3ccc(N4CCN(C(C)C)CC4)cc3)cc3c2nc(C)n3C)nc1 [Example 22, 6-(4-(4-isopropylpiperazin-1-yl)phenyl)-1,2-dimethyl-N-(5-methylpyridin-2-yl)-1H-benzo[d]imidazol-4-amine] | 762 nM
COc1ccnc(Nc2cc(-c3ccc(N4CCN(C(C)C)CC4)cc3)cc3c2nc(C)n3C)c1 [Example 23, 6-(4-(4-isopropylpiperazin-1-yl)phenyl)-N-(4-methoxypyridin-2-yl)-1,2-dimethyl-1H-benzo[d]imidazol-4-amine, TFA] | 370 nM
Cc1ccc(Nc2cc(-c3ccc(N4CCN(C(C)C)CC4)cc3)cc3c2nc(C)n3C)nn1 [Example 24, 6-(4-(4-isopropylpiperazin-1-yl)phenyl)-1,2-dimethyl-N-(6-methylpyridazin-3-yl)-1H-benzo[d]imidazol-4-amine] | 600 nM
CC(C)c1nc2c(NCCN3CCOCC3)cc(-c3ccc(N4CCN(C(C)C)CC4)cc3)cc2n1C [Example 25, 2-isopropyl-6-(4-(4-isopropylpiperazin-1-yl)phenyl)-1-methyl-N-(2-morpholinoethyl)-1H-benzo[d]imidazol-4-amine, 2 TFA] | 530 nM
Cc1cc(C)nc(Nc2cc(-c3ccc(N4CCN(C(C)C)CC4)cc3)cc3c2nc(C(C)C)n3C)c1 [Example 26, N-(4,6-dimethylpyridin-2-yl)-2-isopropyl-6-(4-(4-isopropylpiperazin-1-yl)phenyl)-1-methyl-1H-benzo[d]imidazol-4-amine] | 578 nM
Cc1cc(C)nc(Nc2cc(-c3ccc(N4CCN(C(C)C)CC4)cc3)cc3c2nc(C2CCN(S(C)(=O)=O)CC2)n3C)c1 [Example 27, N-(4,6-dimethylpyridin-2-yl)-6-(4-(4-isopropylpiperazin-1-yl)phenyl)-1-methyl-2-(1-(methylsulfonyl)piperidin-4-yl)-1H-benzo[d]imidazol-4-amine] | 284 nM
CC(C)N1CCN(c2ccc(-c3cc(NCCN4CCN(S(C)(=O)=O)CC4)c4nc(-c5ccc(S(C)(=O)=O)cc5)n(C)c4c3)cc2)CC1 [Example 28, 6-(4-(4-isopropylpiperazin-1-yl)phenyl)-1-methyl-2-(4-(methylsulfonyl)phenyl)-N-(2-(4-(methylsulfonyl)piperazin-1-yl)ethyl)-1H-benzo[d]imidazol-4-amine, 2 TFA] | 807 nM
Cc1cc(C)nc(Nc2cc(-c3ccc(N4CCN(C(C)C)CC4)cc3)cc3c2nc(-c2ccc(S(C)(=O)=O)cc2)n3C)c1 [Example 29, N-(4,6-dimethylpyridin-2-yl)-6-(4-(4-isopropylpiperazin-1-yl)phenyl)-1-methyl-2-(4-(methylsulfonyl)phenyl)-1H-benzo[d]imidazol-4-amine] | 340 nM
CC(C)N1CCN(c2ccc(-c3cc(NCCN4CCOCC4)c4nc(C5CCN(S(C)(=O)=O)CC5)n(C)c4c3)cc2)CC1 [Example 30, 6-(4-(4-isopropylpiperazin-1-yl)phenyl)-1-methyl-2-(1-(methylsulfonyl)piperidin-4-yl)-N-(2-morpholinoethyl)-1H-benzo[d]imidazol-4-amine] | 374 nM
CC(C)N1CCN(c2ccc(-c3cc(NCCN4CCOCC4)c4nc(C5CC5)n(C)c4c3)cc2)CC1 [Example 31, 2-cyclopropyl-6-(4-(4-isopropylpiperazin-1-yl)phenyl)-1-methyl-N-(2-morpholinoethyl)-1H-benzo[d]imidazol-4-amine, 2 TFA] | 302 nM
